Laboratory results as given in the supplement of paper PMC10307832.

Legend:
Assay in all cases: relative viability (nuclei count vs DMSO), 5 days (fraction); higher = more cells survive
Ponatinib + OSI-027 = compound: Cc1ccc(C(=O)Nc2ccc(CN3CCN(C)CC3)c(C(F)(F)F)c2)cc1C#Cc1cnc2cccnn12 [Ponatinib] + COc1cccc2cc(-c3nc([C@H]4CC[C@H](C(=O)O)CC4)n4ncnc(N)c34)[nH]c12 [OSI-027] (partner 0.5 µM)
Procedure, shortened: (§1)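 Cells from lung cancer lines were seeded into 1536-well plates and, one day later, dosed by pin tool. Treatments were either a single drug or a fixed dose of an anchor drug with five library-drug doses (not always all listed) in √10 steps. After 5 days, nuclei were stained in a one-step fixation (final 0.05% Triton X-100, 1% formaldehyde, 1 ug/ml Hoechst) and counted on 4× images, and relative viability is the treated-to-vehicle nuclei ratio, as the median of duplicate plates.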

Ponatinib + Linsitinib = compound: Cc1ccc(C(=O)Nc2ccc(CN3CCN(C)CC3)c(C(F)(F)F)c2)cc1C#Cc1cnc2cccnn12 [Ponatinib] + C[C@]1(O)C[C@@H](c2nc(-c3ccc4ccc(-c5ccccc5)nc4c3)c3c(N)nccn32)C1 [Linsitinib] (partner 1 µM)
Procedure, shortened: as §1

Ponatinib + Phenformin = compound: Cc1ccc(C(=O)Nc2ccc(CN3CCN(C)CC3)c(C(F)(F)F)c2)cc1C#Cc1cnc2cccnn12 [Ponatinib] + N=C(N)NC(=N)NCCc1ccccc1 [Phenformin] (partner 250 µM)
Procedure, shortened: as §1

Pazopanib + Luminespib = compound: Cc1ccc(Nc2nccc(N(C)c3ccc4c(C)n(C)nc4c3)n2)cc1S(N)(=O)=O [Pazopanib] + CCNC(=O)c1noc(-c2cc(C(C)C)c(O)cc2O)c1-c1ccc(CN2CCOCC2)cc1 [Luminespib] (partner 0.01 µM)
Procedure, shortened: as §1

Cell Line	relative viability (Ponatinib + OSI-027; first compound 0.002 µM)	relative viability (Ponatinib + OSI-027; first compound 0.006325 µM)	relative viability (Ponatinib + OSI-027; first compound 0.06325 µM)	relative viability (Ponatinib + OSI-027; first compound 0.2 µM)	relative viability (Ponatinib + Linsitinib; first compound 0.002 µM)	relative viability (Ponatinib + Linsitinib; first compound 0.006325 µM)	relative viability (Ponatinib + Linsitinib; first compound 0.06325 µM)	relative viability (Ponatinib + Linsitinib; first compound 0.2 µM)	relative viability (Ponatinib + Phenformin; first compound 0.002 µM)	relative viability (Ponatinib + Phenformin; first compound 0.006325 µM)	relative viability (Ponatinib + Phenformin; first compound 0.06325 µM)	relative viability (Ponatinib + Phenformin; first compound 0.2 µM)	relative viability (Pazopanib + Luminespib; first compound 0.01 µM)	relative viability (Pazopanib + Luminespib; first compound 0.03162 µM)	relative viability (Pazopanib + Luminespib; first compound 0.1 µM)	relative viability (Pazopanib + Luminespib; first compound 0.3162 µM)	relative viability (Pazopanib + Luminespib; first compound 1 µM)
LU99A	0.299	0.319	0.32	0.278	0.5	0.501	0.611	0.527	0.823	0.873	0.744	0.859	0.245	0.226	0.244	0.279	0.258
NCI-H1355	0.409	0.48	0.43	0.385	0.833	0.916	1.08	0.947	0.44	0.467	0.491	0.452	0.695	0.709	0.816	0.675	0.838
NCI-H1563	0.764	0.711	0.687	0.692	1.22	1.26	1.21	1.1	0.587	0.649	0.655	0.525	0.476	0.507	0.497	0.519	0.526
HCC-15	0.643	0.677	0.843	0.599	0.923	0.873	0.953	0.815	0.445	0.494	0.547	0.467	0.146	0.242	0.366	0.2	0.498
EKVX	0.66	0.729	0.829	0.706	0.927	1.04	1.24	1.02	0.231	0.25	0.234	0.249	0.987	0.763	0.728	0.873	0.857
NCI-H2087	0.667	0.525	0.593	0.563	0.632	0.761	0.761	0.893	0.517	0.471	0.493	0.439	0.162	0.174	0.171	0.165	0.159
LK-2	0.151	0.217	0.162	0.147	0.599	0.623	0.592	0.351	–	0.52	0.239	0.21	–	0.208	0.176	0.168	0.219
NCI-H1437	0.809	0.864	1.01	0.75	0.999	1.05	1.05	0.915	0.293	0.334	0.322	0.302	1.25	1.16	1.13	1.11	1.07
COR-L23	0.707	0.73	0.766	0.604	0.9	0.826	0.889	0.741	0.382	0.453	0.419	0.436	0.644	0.791	0.72	0.654	0.785
ABC-1	0.394	0.513	0.47	0.393	1.07	0.881	0.794	0.973	0.215	0.23	0.224	0.263	0.627	0.672	–	0.41	0.961
PC-14	0.747	0.778	0.933	0.699	0.927	0.91	1.13	1.01	0.443	0.619	0.665	0.605	0.155	0.177	0.173	0.177	0.142
A-427	0.49	0.429	0.396	0.215	1.06	1.09	1.21	0.981	0.34	0.398	0.244	0.225	1.08	1.18	0.786	1.02	1.19
NCI-H1792	0.621	0.747	0.841	0.586	0.525	0.591	0.572	0.521	0.268	0.22	0.354	0.205	–	0.394	0.476	0.423	0.422
LCLC-97TM1	0.448	0.561	0.606	0.28	–	0.218	–	0.197	0.489	0.432	0.467	0.411	0.817	0.839	0.831	0.925	0.736
LCLC-103H	0.43	0.382	0.453	0.419	0.952	1.15	1.15	0.889	0.275	0.347	0.312	0.295	0.861	1.02	1.03	0.937	1.05
RERF-LC-KJ	0.603	0.576	0.688	0.522	0.842	0.907	0.914	0.827	0.41	0.417	0.482	0.426	1.31	1.36	1.29	1.23	1.23
BEN	0.3	0.305	0.312	0.332	0.858	0.985	0.846	0.87	0.253	0.288	0.253	0.264	–	0.328	0.246	0.364	0.352
NCI-H1666	0.727	0.762	0.872	0.79	0.765	0.916	1.09	0.859	0.564	0.538	0.564	0.585	1.03	1.08	0.99	1.06	1.06
LC-2-ad	0.673	0.732	0.775	0.678	0.802	0.728	0.644	0.555	0.415	0.542	0.498	0.462	0.992	1.06	1.02	1.03	1.23
